We go through 12 molecules from ChEMBL document CHEMBL3822432, “Antibacterial and anticancer activity of a series of novel peptides incorporating cyclic tetra-substituted C(α) amino acids” (Bioorg Med Chem, 2016).

≈ marks a conversion by molar mass, not a printed value. Non-standard residues stand in square brackets, D forms with d. Residues, ends and D or L forms follow the SMILES beside them. ξ: configuration not given here. Ac6c = NC1(C(=O)O)CCCCC1; Ac5c = NC1(C(=O)O)CCCC1; ξOrn = NCCCC(N)C(=O)O; ξDab = NCCC(N)C(=O)O; ξDap = NCC(N)C(=O)O

In general, MIC refers to the least concentration at which growth counts as inhibited. High values mean a need for much substance, low ones inhibition by little substance.

In assay [1] the test system is Mycobacterium tuberculosis. Put plainly: Antibacterial activity against ofloxacin-resistant Mycobacterium tuberculosis by two fold serial dilution method. It counts as functional.
For assay [2], the system named is Mycobacterium tuberculosis. Put plainly: Antibacterial activity against rifampin/isoniazid-resistant Mycobacterium tuberculosis CSU 45 SRI 1377 by two fold serial dilution method. It is filed as functional.

For the molecule `CN[C@@H]1[C@H](O[C@H]2[C@H](O[C@H]3[C@H](O)[C@@H](O)[C@H](N=C(N)N)[C@@H](O)[C@@H]3N=C(N)N)O[C@@H](C)[C@]2(O)C=O)O[C@@H](CO)[C@H](O)[C@H]1O` [STREPTOMYCIN], the MIC in assay [1] turned out to be 3.4 µM (≈ 1.98 µg/mL); in assay [2], 0.8 µM (≈ 0.465 µg/mL).

On to `CC(=O)NCC(=O)N[C@@H](Cc1ccccc1)C(=O)NC1(C(=O)NCC(=O)NC2(C(=O)N[C@@H](CCCCN)C(=O)NC3(C(=O)NCC(=O)NC4(C(=O)N[C@@H](Cc5ccccc5)C(=O)NC5(C(=O)NCC(=O)NC6(C(=O)NCC(=O)N[C@@H](CCCCN)C(=O)NC7(C(=O)N[C@@H](CCCCN)C(=O)N[C@@H](CCCCN)C(=O)N[C@@H](CCCCN)C(=O)N[C@@H](CCCCN)C(N)=O)CCCC7)CCCC6)CCCC5)CCCC4)CCCC3)CCCC2)CCCC1` (Ac-GF[Ac5c]G[Ac5c]K[Ac5c]G[Ac5c]F[Ac5c]G[Ac5c]GK[Ac5c]KKKK-NH2), for which the results for the minimum inhibitory concentration (MIC) in assay [1] and in assay [2] were 22.9 µM (≈ 49.9 µg/mL) and 11.4 µM (≈ 25 µg/mL), respectively.

Consider `CC(=O)NCC(=O)N[C@@H](Cc1ccccc1)C(=O)NC1(C(=O)NCC(=O)NC2(C(=O)N[C@@H](CCCNC(=N)N)C(=O)NC3(C(=O)NCC(=O)NC4(C(=O)N[C@@H](Cc5ccccc5)C(=O)NC5(C(=O)NCC(=O)NC6(C(=O)NCC(=O)N[C@@H](CCCNC(=N)N)C(=O)NC7(C(=O)N[C@@H](CCCNC(=N)N)C(=O)N[C@@H](CCCNC(=N)N)C(=O)N[C@@H](CCCNC(=N)N)C(=O)N[C@@H](CCCNC(=N)N)C(N)=O)CCCC7)CCCC6)CCCC5)CCCC4)CCCC3)CCCC2)CCCC1` (Ac-GF[Ac5c]G[Ac5c]R[Ac5c]G[Ac5c]F[Ac5c]G[Ac5c]GR[Ac5c]RRRR-NH2), for which the MIC in assay [1] and in assay [2] was greater than 43 µM throughout.

Take `CC(=O)NCC(=O)N[C@@H](Cc1ccccc1)C(=O)NC1(C(=O)NCC(=O)NC2(C(=O)N[C@@H](CCCCN)C(=O)N[C@@H](CCCCN)C(=O)NC3(C(=O)NCC(=O)NC4(C(=O)N[C@@H](Cc5ccccc5)C(=O)NC5(C(=O)NCC(=O)NC6(C(=O)NCC(=O)N[C@@H](CCCCN)C(=O)N[C@@H](CCCCN)C(=O)NC7(C(=O)N[C@@H](CCCCN)C(=O)N[C@@H](CCCCN)C(=O)N[C@@H](CCCCN)C(=O)N[C@@H](CCCCN)C(N)=O)CCCCC7)CCCCC6)CCCCC5)CCCCC4)CCCCC3)CCCCC2)CCCCC1` (Ac-GF[Ac6c]G[Ac6c]KK[Ac6c]G[Ac6c]F[Ac6c]G[Ac6c]GKK[Ac6c]KKKK-NH2): the MIC in assay [1] and in assay [2] was 4.92 µM (≈ 12.5 µg/mL) throughout.

With `CC(=O)NCC(=O)N[C@@H](Cc1ccccc1)C(=O)NC1(C(=O)NCC(=O)N2Cc3ccccc3CC2C(=O)N[C@H](CCCCN)C(=O)NC2(C(=O)NCC(=O)N3Cc4ccccc4CC3C(=O)N[C@H](Cc3ccccc3)C(=O)NC3(C(=O)NCC(=O)N4Cc5ccccc5CC4C(=O)NCC(=O)N[C@H](CCCCN)C(=O)N4Cc5ccccc5CC4C(=O)N[C@H](CCCCN)C(=O)N[C@H](CCCCN)C(=O)N[C@H](CCCCN)C(=O)N[C@H](CCCCN)C(N)=O)CCCCC3)CCCCC2)CCCCC1` (some centres undefined), the MIC in assay [1] and in assay [2] was 20.7 µM (≈ 50 µg/mL) throughout.

With `CC(=O)NCC(=O)N[C@@H](Cc1ccccc1)C(=O)NC1(C(=O)NCC(=O)NC2(C(=O)N[C@@H](CCCCN)C(=O)NC3(C(=O)NCC(=O)NC4(C(=O)N[C@@H](Cc5ccccc5)C(=O)NC5(C(=O)NCC(=O)NC6(C(=O)NCC(=O)N[C@@H](CCCCN)C(=O)NC7(C(=O)N[C@@H](CCCCN)C(=O)N[C@@H](CCCCN)C(=O)N[C@@H](CCCCN)C(=O)N[C@@H](CCCCN)C(N)=O)CCCC7)CCCCC6)CCCC5)CCCCC4)CCCC3)CCCCC2)CCCC1` (Ac-GF[Ac5c]G[Ac6c]K[Ac5c]G[Ac6c]F[Ac5c]G[Ac6c]GK[Ac5c]KKKK-NH2), the MIC in assay [1] and in assay [2] was 11.2 µM (≈ 25 µg/mL) throughout.

In the case of `CC(=O)NCC(=O)N[C@@H](Cc1ccccc1)C(=O)NC1(C(=O)NCC(=O)NC2(C(=O)NC(CCN)C(=O)NC3(C(=O)NCC(=O)NC4(C(=O)N[C@@H](Cc5ccccc5)C(=O)NC5(C(=O)NCC(=O)NC6(C(=O)NCC(=O)NC(CCN)C(=O)NC7(C(=O)NC(CCN)C(=O)NC(CCN)C(=O)NC(CCN)C(=O)NC(CCN)C(N)=O)CCCCC7)CCCCC6)CCCCC5)CCCCC4)CCCCC3)CCCCC2)CCCCC1` (some centres undefined) (Ac-GF[Ac6c]G[Ac6c][ξDab][Ac6c]G[Ac6c]F[Ac6c]G[Ac6c]G[ξDab][Ac6c][ξDab][ξDab][ξDab][ξDab]-NH2), the MIC in assay [1] and in assay [2] was 25.6 µM (≈ 54.3 µg/mL) throughout.

Turning to `CC(=O)NCC(=O)N[C@H](Cc1ccccc1)C(=O)NC1(C(=O)NCC(=O)N2C(C(=O)N[C@@H](CCCCN)C(=O)NC3(C(=O)NCC(=O)N4C(C(=O)N[C@@H](Cc5ccccc5)C(=O)NC5(C(=O)NCC(=O)N6C(C(=O)NCC(=O)N[C@@H](CCCCN)C(=O)N7C(C(=O)N[C@H](CCCCN)C(=O)N[C@H](CCCCN)C(=O)N[C@H](CCCCN)C(=O)N[C@H](CCCCN)C(N)=O)CC8CCCCC87)CC7CCCCC76)CCCCC5)CC5CCCCC54)CCCCC3)CC3CCCCC32)CCCCC1` (stereo in doubt), the minimal inhibitory concentration (MIC) in assay [1] and in assay [2] was 20.9 µM (≈ 50 µg/mL) each time.

`CC(=O)NCC(=O)N[C@@H](Cc1ccccc1)C(=O)NC1(C(=O)NCC(=O)NC2(C(=O)NC(CN)C(=O)NC3(C(=O)NCC(=O)NC4(C(=O)N[C@@H](Cc5ccccc5)C(=O)NC5(C(=O)NCC(=O)NC6(C(=O)NCC(=O)NC(CN)C(=O)NC7(C(=O)NC(CN)C(=O)NC(CN)C(=O)NC(CN)C(=O)NC(CN)C(N)=O)CCCCC7)CCCCC6)CCCCC5)CCCCC4)CCCCC3)CCCCC2)CCCCC1` (some centres undefined) (Ac-GF[Ac6c]G[Ac6c][ξDap][Ac6c]G[Ac6c]F[Ac6c]G[Ac6c]G[ξDap][Ac6c][ξDap][ξDap][ξDap][ξDap]-NH2): the minimum inhibitory concentration (MIC) in assay [1] and in assay [2] was 49.3 µM (≈ 100 µg/mL) throughout.

As for `CC(=O)NCC(=O)N[C@@H](Cc1ccccc1)C(=O)NC1(C(=O)NCC(=O)NC2(C(=O)NC(CCCN)C(=O)NC3(C(=O)NCC(=O)NC4(C(=O)N[C@@H](Cc5ccccc5)C(=O)NC5(C(=O)NCC(=O)NC6(C(=O)NCC(=O)NC(CCCN)C(=O)NC7(C(=O)NC(CCCN)C(=O)NC(CCCN)C(=O)NC(CCCN)C(=O)NC(CCCN)C(N)=O)CCCCC7)CCCCC6)CCCCC5)CCCCC4)CCCCC3)CCCCC2)CCCCC1` (some centres undefined) (Ac-GF[Ac6c]G[Ac6c][ξOrn][Ac6c]G[Ac6c]F[Ac6c]G[Ac6c]G[ξOrn][Ac6c][ξOrn][ξOrn][ξOrn][ξOrn]-NH2), the MIC in assay [1] and in assay [2] was 11.4 µM (≈ 25 µg/mL) throughout.

As for `CC(=O)N[C@@H](CCCCN)C(=O)N[C@@H](CCCCN)C(=O)N[C@@H](CCCCN)C(=O)N[C@@H](CCCCN)C(=O)NCC(=O)N[C@@H](Cc1ccccc1)C(=O)NC1(C(=O)NCC(=O)NC2(C(=O)N[C@@H](CCCCN)C(=O)NC3(C(=O)NCC(=O)NC4(C(=O)N[C@@H](Cc5ccccc5)C(=O)NC5(C(=O)NCC(=O)NC6(C(=O)NCC(=O)N[C@@H](CCCCN)C(=O)NC7(C(N)=O)CCCCC7)CCCCC6)CCCCC5)CCCCC4)CCCCC3)CCCCC2)CCCCC1` (Ac-KKKKGF[Ac6c]G[Ac6c]K[Ac6c]G[Ac6c]F[Ac6c]G[Ac6c]GK[Ac6c]-NH2), the values for the MIC in assay [1] and in assay [2] were 5.47 µM (≈ 12.5 µg/mL) and 10.9 µM (≈ 25 µg/mL), respectively.

Consider `CC(=O)NCC(=O)N[C@@H](Cc1ccccc1)C(=O)NC1(C(=O)NCC(=O)NC2(C(=O)N[C@@H](CCCNC(=N)N)C(=O)NC3(C(=O)NCC(=O)NC4(C(=O)N[C@@H](Cc5ccccc5)C(=O)NC5(C(=O)NCC(=O)NC6(C(=O)NCC(=O)N[C@@H](CCCNC(=N)N)C(=O)NC7(C(=O)N[C@@H](CCCNC(=N)N)C(=O)N[C@@H](CCCNC(=N)N)C(=O)N[C@@H](CCCNC(=N)N)C(=O)N[C@@H](CCCNC(=N)N)C(N)=O)CCCCC7)CCCCC6)CCCCC5)CCCCC4)CCCCC3)CCCCC2)CCCCC1` (Ac-GF[Ac6c]G[Ac6c]R[Ac6c]G[Ac6c]F[Ac6c]G[Ac6c]GR[Ac6c]RRRR-NH2), for which the MIC in assay [1] turned out to be 40.8 µM (≈ 99.9 µg/mL); in assay [2] it was 10.2 µM (≈ 25 µg/mL).
